Test results: patent US12686673B2 (Blueprint Medicines Corporation, priority 2020, dated 2026)
pIC50: −log10 of the molar value. Counter-ions that a name gives are not always drawn. Like-named read-outs stand apart in the source and are kept apart here.

Experiments:
Type in all cases: cell-based
A431 cells = assay: Cellular proliferation (Alamar Blue) assay, A431; conditions: Homo sapiens; for pIC50: A-431, A431 cells, Alamar Blue, 72 hr, read-out: A431 IC50
[1] = target: EGFR(D770_N771insSVD) expressing Ba/F3 stable cell line (Homo sapiens, UniProt P00533, DUP768-770, cells depend on it); assay: Cellular proliferation (Alamar Blue) assay, EGFR D770_N771insSVD Ba/F3; conditions: 72 hr, read-out: D770 IC50
EGFR(D770_N771insSVD) expressing Ba/F3 stable cell line, sequence (P00533 with tags, fused parts or gaps DUP768-770): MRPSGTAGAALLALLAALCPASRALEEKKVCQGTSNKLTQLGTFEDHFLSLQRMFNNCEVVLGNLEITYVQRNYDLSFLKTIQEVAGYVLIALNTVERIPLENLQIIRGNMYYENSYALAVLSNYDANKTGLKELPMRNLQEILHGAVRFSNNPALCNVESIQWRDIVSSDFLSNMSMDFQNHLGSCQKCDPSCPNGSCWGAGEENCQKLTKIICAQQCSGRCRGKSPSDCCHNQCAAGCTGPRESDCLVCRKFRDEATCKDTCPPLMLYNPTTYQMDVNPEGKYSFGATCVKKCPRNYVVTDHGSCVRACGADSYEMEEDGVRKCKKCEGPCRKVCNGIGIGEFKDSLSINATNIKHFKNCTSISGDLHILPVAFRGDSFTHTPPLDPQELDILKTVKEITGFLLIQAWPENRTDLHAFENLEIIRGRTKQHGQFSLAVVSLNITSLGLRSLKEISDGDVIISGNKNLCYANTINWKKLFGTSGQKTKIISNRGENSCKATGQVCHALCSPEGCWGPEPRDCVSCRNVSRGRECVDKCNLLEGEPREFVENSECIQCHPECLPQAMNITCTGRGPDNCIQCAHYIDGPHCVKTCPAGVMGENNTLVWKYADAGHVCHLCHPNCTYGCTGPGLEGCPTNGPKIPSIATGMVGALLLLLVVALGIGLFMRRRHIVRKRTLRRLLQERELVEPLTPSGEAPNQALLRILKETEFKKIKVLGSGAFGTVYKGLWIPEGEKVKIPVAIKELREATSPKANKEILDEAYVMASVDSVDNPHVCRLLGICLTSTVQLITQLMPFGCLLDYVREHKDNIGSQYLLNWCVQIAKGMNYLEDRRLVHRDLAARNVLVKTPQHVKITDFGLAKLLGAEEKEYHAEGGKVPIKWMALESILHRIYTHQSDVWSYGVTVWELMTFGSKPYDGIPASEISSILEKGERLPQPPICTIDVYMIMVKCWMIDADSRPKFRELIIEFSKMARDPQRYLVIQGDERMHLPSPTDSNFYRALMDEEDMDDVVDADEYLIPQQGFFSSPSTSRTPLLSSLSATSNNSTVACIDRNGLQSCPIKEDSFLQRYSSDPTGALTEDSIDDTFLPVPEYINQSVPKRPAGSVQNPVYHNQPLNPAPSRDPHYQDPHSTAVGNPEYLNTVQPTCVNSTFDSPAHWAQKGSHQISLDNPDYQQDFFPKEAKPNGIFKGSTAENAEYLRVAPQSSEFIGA
Outline: (§1)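 Steps: plate 15,000 Ba/F3 cells/well in RPMI/10% FBS; rest 16-18 h, 37 °C; add compound at final 10-0.0005 μM (3-fold series) or DMSO; incubate 72 hr; add Alamar Blue; read after 3 h.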

[2] = target: HER2 (A775_G776insYVMA) expressing Ba/F3 stable cell line (Homo sapiens, UniProt P04626, DUP772-775, cells depend on it); assay: Cellular proliferation (Alamar Blue) assay, HER2 A775_G776insYVMA Ba/F3; conditions: 72 hr, read-out: YVMA IC50
HER2 (A775_G776insYVMA) expressing Ba/F3 stable cell line, sequence (P04626 with tags, fused parts or gaps DUP772-775): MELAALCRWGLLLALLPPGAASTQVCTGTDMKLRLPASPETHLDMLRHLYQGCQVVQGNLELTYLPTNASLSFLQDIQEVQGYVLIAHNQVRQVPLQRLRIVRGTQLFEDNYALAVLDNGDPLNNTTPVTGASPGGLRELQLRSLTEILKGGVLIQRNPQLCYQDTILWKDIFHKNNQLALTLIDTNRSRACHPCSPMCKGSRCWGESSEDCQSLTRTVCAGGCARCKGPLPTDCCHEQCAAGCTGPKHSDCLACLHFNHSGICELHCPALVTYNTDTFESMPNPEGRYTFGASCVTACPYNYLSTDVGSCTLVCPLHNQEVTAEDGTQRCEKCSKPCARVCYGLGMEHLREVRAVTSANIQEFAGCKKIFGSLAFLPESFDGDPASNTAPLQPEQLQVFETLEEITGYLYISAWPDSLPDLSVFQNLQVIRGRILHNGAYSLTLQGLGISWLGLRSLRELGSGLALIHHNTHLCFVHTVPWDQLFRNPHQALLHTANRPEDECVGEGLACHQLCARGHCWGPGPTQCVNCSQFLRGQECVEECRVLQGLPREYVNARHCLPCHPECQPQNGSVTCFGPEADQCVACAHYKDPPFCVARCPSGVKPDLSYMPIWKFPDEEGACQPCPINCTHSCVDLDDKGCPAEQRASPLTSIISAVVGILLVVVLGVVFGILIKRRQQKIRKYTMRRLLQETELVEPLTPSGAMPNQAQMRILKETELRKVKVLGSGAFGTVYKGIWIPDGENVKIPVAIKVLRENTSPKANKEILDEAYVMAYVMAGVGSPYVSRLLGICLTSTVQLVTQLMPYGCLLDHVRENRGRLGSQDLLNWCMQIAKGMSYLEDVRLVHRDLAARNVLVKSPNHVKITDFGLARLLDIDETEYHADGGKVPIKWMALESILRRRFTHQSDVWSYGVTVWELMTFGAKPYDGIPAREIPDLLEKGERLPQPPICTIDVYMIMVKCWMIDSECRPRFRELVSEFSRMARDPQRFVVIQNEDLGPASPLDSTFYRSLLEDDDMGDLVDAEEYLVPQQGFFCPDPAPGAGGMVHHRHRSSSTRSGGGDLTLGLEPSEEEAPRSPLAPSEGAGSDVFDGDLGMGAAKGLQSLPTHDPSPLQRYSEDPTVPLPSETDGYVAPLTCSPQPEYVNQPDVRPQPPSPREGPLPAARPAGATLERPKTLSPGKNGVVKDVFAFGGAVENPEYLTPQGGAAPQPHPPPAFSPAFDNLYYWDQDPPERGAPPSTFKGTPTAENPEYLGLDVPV
Outline: as §1

[3] = target: EGFR (H773insNPH) expressing Ba/F3 stable cell line (Homo sapiens, UniProt P00533, DUP771-773, cells depend on it); assay: Cellular proliferation (Alamar Blue) assay, EGFR H773insNPH Ba/F3; conditions: 72 hr, read-out: NPH IC50
EGFR (H773insNPH) expressing Ba/F3 stable cell line, sequence (P00533 with tags, fused parts or gaps DUP771-773): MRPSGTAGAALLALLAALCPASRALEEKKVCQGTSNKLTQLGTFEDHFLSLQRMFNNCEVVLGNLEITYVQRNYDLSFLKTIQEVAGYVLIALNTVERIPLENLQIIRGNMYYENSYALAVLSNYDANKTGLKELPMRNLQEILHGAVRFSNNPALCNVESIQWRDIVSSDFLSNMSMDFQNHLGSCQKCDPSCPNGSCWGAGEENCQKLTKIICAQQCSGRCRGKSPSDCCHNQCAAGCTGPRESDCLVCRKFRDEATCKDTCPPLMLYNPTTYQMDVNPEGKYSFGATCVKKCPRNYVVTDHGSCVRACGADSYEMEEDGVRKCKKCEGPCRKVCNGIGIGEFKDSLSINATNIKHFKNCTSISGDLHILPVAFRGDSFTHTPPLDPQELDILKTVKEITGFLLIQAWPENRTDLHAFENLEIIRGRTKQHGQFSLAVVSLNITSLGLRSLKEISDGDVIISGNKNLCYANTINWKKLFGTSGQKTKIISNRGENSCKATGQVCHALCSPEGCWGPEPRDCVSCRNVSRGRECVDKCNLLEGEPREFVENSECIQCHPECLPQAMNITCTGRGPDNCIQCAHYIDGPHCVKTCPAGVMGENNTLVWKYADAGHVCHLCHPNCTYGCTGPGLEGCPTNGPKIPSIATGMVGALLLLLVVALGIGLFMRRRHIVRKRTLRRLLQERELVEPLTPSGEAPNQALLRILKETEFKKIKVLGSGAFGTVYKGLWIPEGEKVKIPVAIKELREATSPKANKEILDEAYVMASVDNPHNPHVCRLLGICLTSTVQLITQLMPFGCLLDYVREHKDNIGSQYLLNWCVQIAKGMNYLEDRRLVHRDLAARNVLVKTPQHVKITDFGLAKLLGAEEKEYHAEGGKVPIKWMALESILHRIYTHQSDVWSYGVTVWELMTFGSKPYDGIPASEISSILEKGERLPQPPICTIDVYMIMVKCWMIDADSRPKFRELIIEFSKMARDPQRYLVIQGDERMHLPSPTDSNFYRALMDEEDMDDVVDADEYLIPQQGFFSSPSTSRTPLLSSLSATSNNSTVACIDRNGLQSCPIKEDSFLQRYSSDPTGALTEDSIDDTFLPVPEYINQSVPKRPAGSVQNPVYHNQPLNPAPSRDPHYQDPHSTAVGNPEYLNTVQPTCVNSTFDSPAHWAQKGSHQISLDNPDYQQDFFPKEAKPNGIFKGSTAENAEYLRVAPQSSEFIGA
Experimental: • 1. EGFR(D770_N771insSVD) expressing Ba/F3 stable cell line • 2. EGFR (A767_dupASV) expressing Ba/F3 stable cell line • 3. A431 cells • 4. EGFR (H773insNPH) expressing Ba/F3 stable cell line • 5. HER2 (A775_G776insYVMA) expressing Ba/F3 stable cell line Assay Procedure: • 1. Seed cells at 5000 for A431 and 15,000 cells for Ba/F3 in 100 μL/well in complete media (for A431: DMEM with […] and for Ba/F3 cells: RPMI with 10% FBS) in 96-well tissue culture plate. Leave outer wells without cells for background measurements. Incubate at 37 degree Celsius in […] humidified incubator for 16-18 hours. • 2. Add 0.025 ml of 5× concentration compound dilution or DMSO control. Final compound concentration range is 10-0.0005 μM prepared in 3-fold serial dilutions. Incubate for 72 hr at 37 degree Celsius in […] humidified incubator. • 3. Add 0.0125 ml Alamar Blue™ reagent to each well with multi-channel pipette and tap gently on each side of the plate to mix. Incubate for 3 hours at 37 degree Celsius in 5% CO2 humidified incubator. • 4. […] Data analysis was performed using XLfit 5.5.0.5.

[4] = target: EGFR (A767_dupASV) expressing Ba/F3 stable cell line (Homo sapiens, UniProt P00533, DUP767-769, cells depend on it); assay: Cellular proliferation (Alamar Blue) assay, EGFR A767_dupASV Ba/F3; conditions: 72 hr, read-out: A767 IC50
EGFR (A767_dupASV) expressing Ba/F3 stable cell line, sequence (P00533 with tags, fused parts or gaps DUP767-769): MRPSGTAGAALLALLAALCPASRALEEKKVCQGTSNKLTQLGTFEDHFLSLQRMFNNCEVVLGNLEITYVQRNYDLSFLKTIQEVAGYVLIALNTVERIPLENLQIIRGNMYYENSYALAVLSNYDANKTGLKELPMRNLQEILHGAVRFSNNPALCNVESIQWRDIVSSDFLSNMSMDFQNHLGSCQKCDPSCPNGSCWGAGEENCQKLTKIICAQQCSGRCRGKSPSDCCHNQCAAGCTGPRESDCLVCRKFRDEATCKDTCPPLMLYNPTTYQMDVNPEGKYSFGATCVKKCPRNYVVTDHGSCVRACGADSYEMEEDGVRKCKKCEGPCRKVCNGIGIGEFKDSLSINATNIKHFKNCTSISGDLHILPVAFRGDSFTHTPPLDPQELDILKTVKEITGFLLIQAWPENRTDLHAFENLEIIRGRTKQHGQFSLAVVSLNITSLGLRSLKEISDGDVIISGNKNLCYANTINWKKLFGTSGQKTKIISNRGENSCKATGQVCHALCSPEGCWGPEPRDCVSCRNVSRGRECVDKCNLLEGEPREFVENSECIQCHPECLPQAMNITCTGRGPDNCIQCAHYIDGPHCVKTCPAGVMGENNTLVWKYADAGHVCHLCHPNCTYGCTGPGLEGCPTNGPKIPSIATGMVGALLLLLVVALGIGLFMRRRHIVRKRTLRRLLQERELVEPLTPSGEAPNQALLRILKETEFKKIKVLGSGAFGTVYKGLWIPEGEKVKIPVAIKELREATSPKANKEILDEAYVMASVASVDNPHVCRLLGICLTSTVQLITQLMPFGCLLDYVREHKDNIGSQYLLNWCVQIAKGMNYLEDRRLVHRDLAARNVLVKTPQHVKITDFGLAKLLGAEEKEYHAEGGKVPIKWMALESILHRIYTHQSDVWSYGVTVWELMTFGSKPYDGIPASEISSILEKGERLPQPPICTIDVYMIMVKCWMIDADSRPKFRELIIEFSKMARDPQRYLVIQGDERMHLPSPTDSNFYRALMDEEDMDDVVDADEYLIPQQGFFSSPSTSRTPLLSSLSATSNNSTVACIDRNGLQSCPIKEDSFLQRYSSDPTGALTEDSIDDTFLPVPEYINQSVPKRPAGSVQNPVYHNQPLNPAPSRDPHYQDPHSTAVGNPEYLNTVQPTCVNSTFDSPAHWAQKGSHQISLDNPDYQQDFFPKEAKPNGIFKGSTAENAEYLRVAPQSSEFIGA
Outline: as §1

| SMILES | pIC50 (A431 cells) | GI50 [1] | GI50 [2] | GI50 [3] | GI50 [4] | IC50 (A431 cells; A-431, 72 h, read-out: A431 IC50 (nM)) |
| --- | --- | --- | --- | --- | --- | --- |
| C=CC(=O)Nc1ccc(F)c(Nc2nc(Nc3cnn(CCO)c3)ncc2-c2ccc(C(F)(F)F)cc2)c1 [Compound 78, N-(4-fluoro-3-((2-((1-(2-hydroxyethyl)-1H-pyrazol-4-yl)amino)-5-(4-(trifluoromethyl)phenyl)pyrimidin-4-yl)amino)phenyl)acrylamide] | < 5.00 | 84 nM | 266 nM | 53 nM | 93 nM | – |
| C=CC(=O)Nc1ccc(F)c(Nc2nc(Nc3cnn(C)c3)ncc2-c2ccnc(C(F)(F)F)c2)c1 [Compound 83, N-(4-fluoro-3-((2-((1-methyl-1H-pyrazol-4-yl)amino)-5-(2-(trifluoromethyl)pyridin-4-yl)pyrimidin-4-yl)amino)phenyl)acrylamide] | 7.28 | 61 nM | 255 nM | 51 nM | 88 nM | – |
| C=CC(=O)Nc1ccc(F)c(Nc2nc(Nc3cnn(C)c3)ncc2-c2cccnc2)c1 [Compound 84, N-(4-fluoro-3-((2-((1-methyl-1H-pyrazol-4-yl)amino)-5-(pyridin-3-yl)pyrimidin-4-yl)amino)phenyl)acrylamide] | – | 64 nM | 119 nM | 50 nM | 83 nM | 191 nM |
| C=CC(=O)Nc1ccc(F)c(Nc2nc(Nc3cnn(C4CCN(C)CC4)c3)ncc2-c2ccc(C(F)(F)F)cc2)c1 [Compound 85, N-(4-fluoro-3-((2-((1-(1-methylpiperidin-4-yl)-1H-pyrazol-4-yl)amino)-5-(4-(trifluoromethyl)phenyl)pyrimidin-4-yl)amino)phenyl)acrylamide] | 5.26 | 109 nM | 378 nM | 119 nM | 249 nM | – |
| C=CC(=O)Nc1ccc(F)c(Nc2nc(Nc3cn(C)nc3F)ncc2-c2ccc(C(F)(F)F)cc2)c1 [Compound 87, N-(4-fluoro-3-((2-((3-fluoro-1-methyl-1H-pyrazol-4-yl)amino)-5-(4-(trifluoromethyl)phenyl)pyrimidin-4-yl)amino)phenyl)acrylamide] | 7.01 | 171 nM | 413 nM | 234 nM | 239 nM | – |
| C=CC(=O)Nc1ccc(F)c(Nc2nc(Nc3cnn(C)c3)ncc2-c2cccc(C(F)(F)F)c2)c1 [Compound 89, N-[4-fluoro-3-({2-[(1-methyl-1H-pyrazol-4-yl)amino]-5-[3-(trifluoromethyl)phenyl]pyrimidin-4-yl}amino)phenyl]prop-2-enamide] | 7.08 | 101 nM | 665 nM | 58 nM | 106 nM | – |
| C=CC(=O)Nc1ccc(F)c(Nc2nc(Nc3cnn(C)c3)ncc2-c2cncc(OC(F)F)c2)c1 [Compound 95, N-(3-((5-(5-(difluoromethoxy)pyridin-3-yl)-2-((1-methyl-1H-pyrazol-4-yl)amino)pyrimidin-4-yl)amino)-4-fluorophenyl)acrylamide] | 6.99 | 38 nM | 101 nM | 45 nM | 27 nM | – |
| C=CC(=O)Nc1cccc(Oc2nc(Nc3cnn(C)c3)ncc2-c2cncc(C(F)(F)F)c2)c1 [Compound 104, N-(3-((2-((1-methyl-1H-pyrazol-4-yl)amino)-5-(5-(trifluoromethyl)pyridin-3-yl)pyrimidin-4-yl)oxy)phenyl)acrylamide] | 5.95 | 107 nM | 115 nM | 101 nM | 104 nM | – |
| C=CC(=O)Nc1cccc(Oc2nc(Nc3cnn(C)c3)ncc2-c2ccc(C(F)F)cc2)c1 [Compound 105, N-(3-((5-(4-(difluoromethyl)phenyl)-2-((1-methyl-1H-pyrazol-4-yl)amino)pyrimidin-4-yl)oxy)phenyl)acrylamide] | 6.77 | 37 nM | 105 nM | 75 nM | 49 nM | – |

Continued, in another order:

| pIC50 (A431 cells) | GI50 [1] | GI50 [2] | GI50 [3] | GI50 [4] | SMILES | IC50 (A431 cells; A-431, 72 h, read-out: A431 IC50 (nM)) |
| --- | --- | --- | --- | --- | --- | --- |
| 7.43 | 35 nM | 100 nM | 43 nM | 74 nM | C=CC(=O)Nc1ccc(F)c(Nc2nc(Nc3cnn(C)c3)ncc2-c2ccc(Br)cc2)c1 [Compound 75, N-(3-((5-(4-bromophenyl)-2-((1-methyl-1H-pyrazol-4-yl)amino)pyrimidin-4-yl)amino)-4-fluorophenyl)acrylamide trifluoroacetate] | – |
| 6.23 | 38 nM | 226 nM | 57 nM | 103 nM | C=CC(=O)Nc1ccc(F)c(Nc2nc(Nc3cnn(C)c3)ncc2-c2ccnc(F)c2)c1 [Compound 82, N-(4-fluoro-3-((5-(2-fluoropyridin-4-yl)-2-((1-methyl-1H-pyrazol-4-yl)amino)pyrimidin-4-yl)amino)phenyl)acrylamide] | – |
| 6.03 | 35 nM | 198 nM | 49 nM | 48 nM | C=CC(=O)Nc1ccc(F)c(Nc2nc(Nc3cnn(C)c3)ncc2-c2cccc(F)c2)c1 [Compound 88, N-(4-fluoro-3-((5-(3-fluorophenyl)-2-((1-methyl-1H-pyrazol-4-yl)amino)pyrimidin-4-yl)amino)phenyl)acrylamide] | – |
| 6.49 | 103 nM | 358 nM | 103 nM | 237 nM | C=CC(=O)Nc1ccc(F)c(Nc2nc(Nc3cnn(C)c3)ncc2-c2ccccc2F)c1 [Compound 90, N-(4-fluoro-3-((5-(2-fluorophenyl)-2-((1-methyl-1H-pyrazol-4-yl)amino)pyrimidin-4-yl)amino)phenyl)acrylamide] | – |
| 6.02 | 62 nM | 479 nM | 91 nM | 108 nM | C=CC(=O)Nc1ccc(F)c(Nc2nc(Nc3cnn(C)c3)ncc2-c2ccc(OC)cc2)c1 [Compound 91, N-(4-fluoro-3-((5-(4-methoxyphenyl)-2-((1-methyl-1H-pyrazol-4-yl)amino)pyrimidin-4-yl)amino)phenyl)acrylamide] | – |
| 6.88 | 102 nM | 612 nM | 89 nM | 75 nM | C=CC(=O)Nc1ccc(F)c(Nc2nc(Nc3cnn(C)c3)ncc2-c2ccc(OC(F)(F)F)cc2)c1 [Compound 92, N-(4-fluoro-3-((2-((1-methyl-1H-pyrazol-4-yl)amino)-5-(4-(trifluoromethoxy)phenyl)pyrimidin-4-yl)amino)phenyl)acrylamide] | – |
| < 5.00 | 121 nM | 465 nM | 148 nM | 315 nM | C=CC(=O)Nc1ccc(F)c(Nc2nc(Nc3cnn(C)c3)ncc2-c2ccccc2)c1 [Compound 93, N-(4-fluoro-3-((2-((1-methyl-1H-pyrazol-4-yl)amino)-5-phenylpyrimidin-4-yl)amino)phenyl)acrylamide] | – |
| < 5.00 | 542 nM | 1270 nM | 448 nM | 109 nM | C=CC(=O)Nc1ccc(F)c(Nc2nc(Nc3cnn(C)c3)ncc2-c2ccc(N3CCOCC3)cc2)c1 [Compound 94, N-(4-fluoro-3-((2-((1-methyl-1H-pyrazol-4-yl)amino)-5-(4-morpholinophenyl)pyrimidin-4-yl)amino)phenyl)acrylamide] | – |
| 7.17 | 37 nM | 171 nM | 75 nM | 96 nM | C=CC(=O)Nc1ccc(F)c(Nc2nc(Nc3cnn(C)c3)ncc2-c2ccc(C(F)F)cc2)c1 [Compound 99, N-(3-((5-(4-(difluoromethyl)phenyl)-2-((1-methyl-1H-pyrazol-4-yl)amino)pyrimidin-4-yl)amino)-4-fluorophenyl)acrylamide] | – |
| 6.33 | 38 nM | 203 nM | 53 nM | 72 nM | C=CC(=O)Nc1ccc(F)c(Nc2nc(Nc3cnn(C)c3)ncc2-c2ccc(F)nc2)c1 [Compound 100, N-(4-fluoro-3-((5-(6-fluoropyridin-3-yl)-2-((1-methyl-1H-pyrazol-4-yl)amino)pyrimidin-4-yl)amino)phenyl)acrylamide] | – |
| 6.31 | 157 nM | 461 nM | 281 nM | 287 nM | C=CC(=O)Nc1ccc(F)c(Nc2nc(Nc3cnn(C)c3)ncc2-c2ccc(N(C)C)cc2)c1 [Compound 103, N-(3-((5-(4-(dimethylamino)phenyl)-2-((1-methyl-1H-pyrazol-4-yl)amino)pyrimidin-4-yl)amino)-4-fluorophenyl)acrylamide] | – |
